Patent publication US10086085B2, “Bifunctional cytotoxic agents” (priority 2014, dated 2018)

Legend:
[1] = system: N87 (human gastric carcinoma derived from metastatic liver site); test: Cytotoxicity assay for payloads (MTS), N87 cells; format: cell-based; settings: Homo sapiens, 96 h; N87 cells, incubated with compounds for four days, MTS absorbance 490 nm; read-out: N87 IC50
Summary of the method: (§1)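 Cells in RPMI 1640 with 10% FBS exposed to compounds for four days at 10 concentrations in duplicate. Viability read by MTS absorbance at 490 nm after 1.5 h, as % of untreated controls; IC50 from four-parameter logistic fit.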

HL60 (leukemia) = test: Cytotoxicity assay for payloads (MTS), HL-60 cells; format: cell-based; settings: Homo sapiens, 96 h, incubated with compounds for four days, MTS absorbance 490 nm
Summary of the method: as §1

Row | SMILES | IC50 [1] | IC50 (HL60 (leukemia))
1 | COC(=O)[C@H]1O[C@@H](Oc2cc3c(c4ccccc24)[C@H](CCl)CN3C(=O)C23CC(C(=O)N4C[C@@H](CCl)c5c4cc(O)c4ccccc54)(C2)C3)[C@H](OC(C)=O)[C@@H](OC(C)=O)[C@@H]1OC(C)=O [Compound 141, (1S)-1-(chloromethyl)-3-[(3-{[(1S)-1-(chloromethyl)-5-hydroxy-1,2-dihydro-3H-benzo[e]indol-3-yl]carbonyl}bicyclo[1.1.1]pent-1-yl)carbonyl]-2,3-dihydro-1H-benzo[e]indol-5-yl methyl 2,3,4-tri-O-acetyl-beta-D-glucopyranosiduronate] | 12.7 nM | 0.361 nM
2 | O=C(c1cccc(C(=O)N2C[C@@H](CCl)c3c2cc(O)c2ccccc32)c1)N1C[C@@H](CCl)c2c1cc(O)c1ccccc21 [Compound 20, (S)-1,3-phenylenebis(((S)-1-(chloromethyl)-5-hydroxy-1H-benzo[e]indol-3(2H)-yl)methanone)] | 297 nM | 1.62 nM
3 | CC(=O)Oc1cc2c(c3ccccc13)[C@H](CCl)CN2C(=O)CC1(CC(=O)N2C[C@@H](CCl)c3c2cc(OC(C)=O)c2ccccc32)CCC1 [Compound 156, cyclobutane-1,1-diylbis[(1-oxoethane-2,1-diyl)(1S)-1-(chloromethyl)-1,2-dihydro-3H-benzo[e]indole-3,5-diyl] diacetate] | ≥ 10 nM | 61.1 nM
4 | Nc1cccc(C(CC(=O)N2C[C@@H](CCl)c3c2cc(O)c2ccccc32)CC(=O)N2C[C@@H](CCl)c3c2cc(O)c2ccccc32)c1 [Compound 44, 3-(3-Amino-phenyl)-1,5-bis-((S)-1-chloromethyl-5-hydroxy-1,2-dihydro-benzo[e]indol-3-yl)-pentane-1,5-dione] | ≥ 10 nM | 5.29 nM
5 | CC(=O)Nc1ccc2c(OC(C)=O)cc3c(c2c1)[C@H](CCl)CN3C(=O)C12CC(C(=O)N3C[C@@H](CCl)c4c3cc(OC(C)=O)c3ccccc43)(C1)C2 [Compound 109, (1S)-3-[(3-{[(1S)-8-(acetylamino)-5-(acetyloxy)-1-(chloromethyl)-1,2-dihydro-3H-benzo[e]indol-3-yl]carbonyl}bicyclo[1.1.1]pent-1-yl)carbonyl]-1-(chloromethyl)-2,3-dihydro-1H-benzo[e]indol-5-yl acetate] | 2.3 nM | 0.095 nM
6 | COc1c(C(=O)N2C[C@@H](CCl)c3c2cc(OC(C)=O)c2ccccc32)sc(C(=O)N2C[C@@H](CCl)c3c2cc(OC(C)=O)c2ccccc32)c1OC [Compound 143, (3,4-dimethoxythiene-2,5-diyl)bis[carbonyl(1S)-1-(chloromethyl)-1,2-dihydro-3H-benzo[e]indole-3,5-diyl] diacetate] | ≥ 100 nM | ≥ 10 nM
7 | CC(=O)Oc1cc2c(c3ccccc13)[C@H](CCl)CN2C(=O)C12CC(C(=O)N3C[C@@H](CCl)c4c3cc(OC(C)=O)c3ccccc43)(C1)C2 [Compound 152, bicyclo[1.1.1]pentane-1,3-diylbis[carbonyl(1S)-1-(chloromethyl)-1,2-dihydro-3H-benzo[e]indole-3,5-diyl] diacetate] | 0.278 nM | 0.008 nM
8 | O=C(CCSCCC(=O)N1C[C@@H](CCl)c2c1cc(O)c1ccccc21)N1C[C@@H](CCl)c2c1cc(O)c1ccccc21 [Compound 23, (S)-3,3′-thiobis(1-((S)-1-(chloromethyl)-5-hydroxy-1H-benzo[e]indol-3(2H)-yl)propan-1-one)] | 0.252 nM | 0.072 nM
9 | CC(=O)Oc1cc2c(c3c(C)c[nH]c13)[C@H](CCl)CN2C(=O)CC12CC(C(=O)N3C[C@@H](CCl)c4c3cc(OC(C)=O)c3[nH]cc(C)c43)(C1)C2 [Compound 97, (8S)-6-[(3-{[(1S)-5-(acetyloxy)-1-(chloromethyl)-8-methyl-1,6-dihydropyrrolo[3,2-e]indol-3(2H)-yl]carbonyl}bicyclo[1.1.1]pent-1-yl)acetyl]-8-(chloromethyl)-1-methyl-3,6,7,8-tetrahydropyrrolo[3,2-e]indol-4-yl acetate] | 0.222 nM | 0.009 nM
10 | O=C([C@@H]1CCC[C@H](C(=O)N2C[C@@H](CCl)c3c2cc(O)c2ccccc32)C1)N1C[C@@H](CCl)c2c1cc(O)c1ccccc21 [Compound 16, (S)-((1R,3S)-cyclohexane-1,3-diyl)bis(((S)-1-(chloromethyl)-5-hydroxy-1H-benzo[e]indol-3(2H)-yl)methanone)] | 1.76 nM | 0.163 nM
11 | NC(CC(=O)N1C[C@@H](CCl)c2c1cc(O)c1ccccc21)CC(=O)N1C[C@@H](CCl)c2c1cc(O)c1ccccc21 [Compound 40, 3-Amino-1,5-bis-((S)-1-chloromethyl-5-hydroxy-1,2-dihydro-enzo[e]indol-3-yl)-pentane-1,5-dione] | 1.88 nM | 0.177 nM
12 | O=C(CCNC(=O)N1C[C@@H](CCl)c2c1cc(O)c1ccccc21)N1C[C@@H](CCl)c2c1cc(O)c1ccccc21 [Compound 65, (S)-1-Chloromethyl-5-hydroxy-1,2-dihydro-benzo[e]indole-3-carboxylic acid [3-((S)-1-chloromethyl-5-hydroxy-1,2-dihydro-benzo[e]indol-3-yl)-3-oxo-propyl]-amide] | 0.554 nM | 0.004 nM
